For series [1], the target named is T1, Activated CDC42 kinase 1 (Homo sapiens, UniProt Q07912). The series can be described thus: Inhibition of human ACK1 kinase activity using biotinylated ATGRYYAMKIL - AKT peptide substrate assessed as phosphorylation at 10 uM by ELISA. Type of series: single protein. A general note: In an ELISA, binding on a coated surface is turned into a signal by an enzyme label.
Target sequence in this assay (Q07912 whole entry, looked up): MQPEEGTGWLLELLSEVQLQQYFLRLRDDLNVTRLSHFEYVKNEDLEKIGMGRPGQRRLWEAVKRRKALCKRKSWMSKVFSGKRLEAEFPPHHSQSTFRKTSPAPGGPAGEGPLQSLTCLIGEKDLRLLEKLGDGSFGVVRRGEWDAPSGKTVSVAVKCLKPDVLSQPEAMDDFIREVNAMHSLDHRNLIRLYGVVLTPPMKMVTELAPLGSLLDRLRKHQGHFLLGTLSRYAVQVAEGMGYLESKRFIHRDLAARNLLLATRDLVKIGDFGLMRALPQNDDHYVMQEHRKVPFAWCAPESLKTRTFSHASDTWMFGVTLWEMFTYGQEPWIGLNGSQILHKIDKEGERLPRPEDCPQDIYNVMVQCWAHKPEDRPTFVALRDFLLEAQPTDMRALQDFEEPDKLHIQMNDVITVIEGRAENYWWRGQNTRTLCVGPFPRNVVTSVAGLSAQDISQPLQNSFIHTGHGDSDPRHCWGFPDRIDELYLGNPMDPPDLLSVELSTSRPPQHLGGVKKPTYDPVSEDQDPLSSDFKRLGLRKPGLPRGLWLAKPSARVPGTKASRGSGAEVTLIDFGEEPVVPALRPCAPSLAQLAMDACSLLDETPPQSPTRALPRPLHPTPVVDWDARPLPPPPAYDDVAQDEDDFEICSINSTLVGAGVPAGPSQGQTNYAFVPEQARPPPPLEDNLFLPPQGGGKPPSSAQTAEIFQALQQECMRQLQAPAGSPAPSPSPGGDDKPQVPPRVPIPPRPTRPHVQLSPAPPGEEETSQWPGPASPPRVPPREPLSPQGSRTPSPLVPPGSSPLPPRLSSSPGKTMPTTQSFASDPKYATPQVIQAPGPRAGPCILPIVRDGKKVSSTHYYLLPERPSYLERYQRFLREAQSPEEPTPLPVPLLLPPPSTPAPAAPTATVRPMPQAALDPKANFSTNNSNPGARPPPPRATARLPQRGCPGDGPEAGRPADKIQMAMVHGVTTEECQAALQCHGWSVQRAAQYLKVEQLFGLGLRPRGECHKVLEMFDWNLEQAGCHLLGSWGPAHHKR

The next series concerns LAPC4. The series can be described thus: Anticancer activity against human LAPC4 cells assessed as inhibition of cell growth up to 10 uM after 72 hrs by trypan blue exclusion assay. In kind it is functional, cell-based.
A further series has as its system Plasma. As to the kind of experiment: Half life in human plasma. Type of series: ADME, cell-free.
A short description of series [2]: Solubility in PBS with 10% DMSO. Type of series: physicochemical. The conditions noted are these: buffer.
In series [3] the target is T1, Activated CDC42 kinase 1. The series can be described thus: Inhibition of ACK1 kinase (unknown origin).
Target sequence in this assay (Q07912 whole entry): as the sequence (Q07912 whole entry, looked up) above
A further series can be described thus: cells. The conditions noted are these: Homo sapiens, VCaP, 72 h.
Series [4] has as its target Tyrosine-protein kinase Lck (Homo sapiens, UniProt P06239).
Series [5] deals with RAC-alpha serine/threonine-protein kinase (Homo sapiens) (UniProt P31749). The series can be described thus: Inhibition of human AKT1 using KGSGSGRPRTSSFAEG peptide substrate at 1 uM by 33P Hotspot assay.
Series [6] concerns the target Tyrosine-protein kinase receptor UFO (Homo sapiens) (UniProt P30530). As to the kind of experiment: Inhibition of human AXL using EAIYAAPFAKKK peptide substrate at 1 uM by 33P Hotspot assay.
The target in series [7] is Tyrosine-protein kinase BTK (Homo sapiens) (UniProt Q06187). As to the kind of experiment: Inhibition of human BTK using […] peptide substrate at 1 uM by 33P Hotspot assay.
Series [8] concerns the target Hepatocyte growth factor receptor (Homo sapiens) (UniProt P08581). The series can be described thus: Inhibition of human c-MET using KKKSPGEYVNIEFG peptide substrate at 1 uM by 33P Hotspot assay.
The target in series [9] is Serine/threonine-protein kinase Chk1 (Homo sapiens) (UniProt O14757). The series can be described thus: Inhibition of human CHK1 using KKKVSRSGLYRSPSMPENLNRPR peptide substrate at 1 uM by 33P Hotspot assay.
The target in series [10] is Mitogen-activated protein kinase kinase kinase 8 (Homo sapiens) (UniProt P41279). As to the kind of experiment: Inhibition of human COT1/MAP3K8 using MEK1 (K97R) substrate at 1 uM by 33P Hotspot assay.
In series [11] the target is Tyrosine-protein kinase CSK (Homo sapiens) (UniProt P41240). As to the kind of experiment: Inhibition of human CSK using poly[Glu:Tyr] (4:1) peptide substrate at 1 uM by 33P Hotspot assay.
Series [12] has as its target Epidermal growth factor receptor (Homo sapiens) (UniProt P00533). As to the kind of experiment: Inhibition of human EGFR using poly[Glu:Tyr] (4:1) peptide substrate at 1 uM by 33P Hotspot assay.
The target in series [13] is Ephrin type-A receptor 2 (Homo sapiens) (UniProt P29317). As to the kind of experiment: Inhibition of human EPHA2 using poly[Glu:Tyr] (4:1) peptide substrate at 1 uM by 33P Hotspot assay.
Series [14] has as its target Receptor tyrosine-protein kinase erbB-2 (Homo sapiens) (UniProt P04626). As to the kind of experiment: Inhibition of human ERBB2/HER2 using poly[Glu:Tyr] (4:1) peptide substrate at 1 uM by 33P Hotspot assay.
For series [15], the target named is Mitogen-activated protein kinase 3 (Homo sapiens) (UniProt P27361). The series can be described thus: Inhibition of human ERK1 using myelin basic protein substrate at 1 uM by 33P Hotspot assay.
For series [16], the target named is T2, Fibroblast growth factor receptor 1 (Homo sapiens, UniProt P11362). As to the kind of experiment: Inhibition of human FGFR1 using KKKSPGEYVNIEFG peptide substrate at 1 uM by 33P Hotspot assay.
Series [17] deals with Tyrosine-protein kinase FRK (Homo sapiens) (UniProt P42685). The series can be described thus: Inhibition of human FRK/PTK5 using poly[Glu:Tyr] (4:1) peptide substrate at 1 uM by 33P Hotspot assay.
The target in series [18] is Inhibitor of nuclear factor kappa-B kinase subunit alpha (Homo sapiens) (UniProt O15111). The series can be described thus: Inhibition of human IKKa/CHUK using KKKKERLLDDRHDSGLDSMKDEE peptide substrate at 1 uM by 33P Hotspot assay.
Series [19] concerns the target Insulin receptor (Homo sapiens) (UniProt P06213). The series can be described thus: Inhibition of human IR using poly[Glu:Tyr] (4:1) peptide substrate at 1 uM by 33P Hotspot assay.
Series [20] deals with T3, Tyrosine-protein kinase JAK2 (Homo sapiens, UniProt O60674). The series can be described thus: Inhibition of human JAK2 using poly[Glu:Tyr] (4:1) peptide substrate at 1 uM by 33P Hotspot assay.
The target of series [21] is Vascular endothelial growth factor receptor 2 (Homo sapiens) (UniProt P35968). As to the kind of experiment: Inhibition of human KDR/VEGFR2 using poly[Glu:Tyr] (4:1) peptide substrate at 1 uM by 33P Hotspot assay.
Series [22] deals with Serine/threonine-protein kinase mTOR (Homo sapiens) (UniProt P42345). The series can be described thus: Inhibition of human mTOR/FRAP1 using 4EBP1 peptide substrate at 1 uM by 33P Hotspot assay.
Series [23] addresses Ribosomal protein S6 kinase beta-1 (Homo sapiens) (UniProt P23443). The series can be described thus: Inhibition of human p70S6K/RPS6KB1 using KKRNRTLTK peptide substrate at 1 uM by 33P Hotspot assay.
The target of series [24] is Platelet-derived growth factor receptor alpha (Homo sapiens) (UniProt P16234). As to the kind of experiment: Inhibition of human PDGFRalpha using poly[Glu:Tyr] (4:1) peptide substrate at 1 uM by 33P Hotspot assay.
Series [25] addresses Serine/threonine-protein kinase pim-1 (Homo sapiens) (UniProt P11309). As to the kind of experiment: Inhibition of human PIM1 using KKRNRTLTK peptide substrate at 1 uM by 33P Hotspot assay.
Series [26] addresses RAF proto-oncogene serine/threonine-protein kinase (Homo sapiens) (UniProt P04049). As to the kind of experiment: Inhibition of human RAF1 using MEK1 (K97R) peptide substrate at 1 uM by 33P Hotspot assay.
The target of series [27] is Serine/threonine-protein kinase Sgk1 (Homo sapiens) (UniProt O00141). As to the kind of experiment: Inhibition of human SGK1 using KGSGSGRPRTSSFAEG peptide substrate at 1 uM by 33P Hotspot assay.
The target of series [28] is Serine/threonine-protein kinase TBK1 (Homo sapiens) (UniProt Q9UHD2). The series can be described thus: Inhibition of human TBK1 using KRRRAL[pS]VASLPGL peptide substrate at 1 uM by 33P Hotspot assay.
In series [29] the target is Angiopoietin-1 receptor (Homo sapiens) (UniProt Q02763). The series can be described thus: Inhibition of human TIE2/TEK using poly[Glu:Tyr] (4:1) peptide substrate at 1 uM by 33P Hotspot assay.
For series [30], the target named is High affinity nerve growth factor receptor (Homo sapiens) (UniProt P04629). The series can be described thus: Inhibition of human TRKA using poly[Glu:Tyr] (4:1) peptide substrate at 1 uM by 33P Hotspot assay.
In series [31] the target is T4, Non-receptor tyrosine-protein kinase TYK2 (Homo sapiens, UniProt P29597). The series can be described thus: Inhibition of human TYK2 using KKSRGDYMTMQIG peptide substrate at 1 uM by 33P Hotspot assay.
In series [32] the target is Wee1-like protein kinase (Homo sapiens) (UniProt P30291). As to the kind of experiment: Inhibition of human WEE1 using myelin basic protein substrate at 1 uM by 33P Hotspot assay.
The target of series [33] is T3, Tyrosine-protein kinase JAK2. As to the kind of experiment: Inhibition of human JAK2 using poly[Glu:Tyr] (4:1) peptide substrate by 33P Hotspot assay.
Series [34] has as its target T4, Non-receptor tyrosine-protein kinase TYK2. As to the kind of experiment: Inhibition of human TYK2 using KKSRGDYMTMQIG peptide substrate by 33P Hotspot assay.
Series [35] deals with T2, Fibroblast growth factor receptor 1. The series can be described thus: Inhibition of human FGFR1 using KKKSPGEYVNIEFG peptide substrate by 33P Hotspot assay.
Series [36] concerns the target Tyrosine-protein kinase ABL1 (Homo sapiens, UniProt P00519). As to the kind of experiment: Inhibition of human ABL1 using EAIYAAPFAKKK peptide substrate by 33P Hotspot assay.
For series [37], the target named is Serine/threonine-protein kinase Chk1 (Homo sapiens, UniProt O14757). As to the kind of experiment: Inhibition of human CHK1 using KKKVSRSGLYRSPSMPENLNRPR peptide substrate by 33P Hotspot assay.
Series [38] has as its target Proto-oncogene tyrosine-protein kinase ROS (Homo sapiens, UniProt P08922). As to the kind of experiment: Inhibition of human ROS/ROS1 using KKKSPGEYVNIEFG peptide substrate by 33P Hotspot assay.
The target in series [39] is Glycogen synthase kinase-3 alpha (Homo sapiens) (UniProt P49840). The settings on record: at 1 µM.
A further series concerns LNCaP. As to the kind of experiment: cells. The conditions noted are these: Homo sapiens, 72 h.

Molecules are shown by their SMILES. Values after ≈ are worked out from the molar mass of the structure shown. Active and inactive are the calls of the source. The calls are words filed in the database; no cut-off is given here. A value given as a limit tells only on which side of the number the result lay.

T4 sequence (P29597 whole entry): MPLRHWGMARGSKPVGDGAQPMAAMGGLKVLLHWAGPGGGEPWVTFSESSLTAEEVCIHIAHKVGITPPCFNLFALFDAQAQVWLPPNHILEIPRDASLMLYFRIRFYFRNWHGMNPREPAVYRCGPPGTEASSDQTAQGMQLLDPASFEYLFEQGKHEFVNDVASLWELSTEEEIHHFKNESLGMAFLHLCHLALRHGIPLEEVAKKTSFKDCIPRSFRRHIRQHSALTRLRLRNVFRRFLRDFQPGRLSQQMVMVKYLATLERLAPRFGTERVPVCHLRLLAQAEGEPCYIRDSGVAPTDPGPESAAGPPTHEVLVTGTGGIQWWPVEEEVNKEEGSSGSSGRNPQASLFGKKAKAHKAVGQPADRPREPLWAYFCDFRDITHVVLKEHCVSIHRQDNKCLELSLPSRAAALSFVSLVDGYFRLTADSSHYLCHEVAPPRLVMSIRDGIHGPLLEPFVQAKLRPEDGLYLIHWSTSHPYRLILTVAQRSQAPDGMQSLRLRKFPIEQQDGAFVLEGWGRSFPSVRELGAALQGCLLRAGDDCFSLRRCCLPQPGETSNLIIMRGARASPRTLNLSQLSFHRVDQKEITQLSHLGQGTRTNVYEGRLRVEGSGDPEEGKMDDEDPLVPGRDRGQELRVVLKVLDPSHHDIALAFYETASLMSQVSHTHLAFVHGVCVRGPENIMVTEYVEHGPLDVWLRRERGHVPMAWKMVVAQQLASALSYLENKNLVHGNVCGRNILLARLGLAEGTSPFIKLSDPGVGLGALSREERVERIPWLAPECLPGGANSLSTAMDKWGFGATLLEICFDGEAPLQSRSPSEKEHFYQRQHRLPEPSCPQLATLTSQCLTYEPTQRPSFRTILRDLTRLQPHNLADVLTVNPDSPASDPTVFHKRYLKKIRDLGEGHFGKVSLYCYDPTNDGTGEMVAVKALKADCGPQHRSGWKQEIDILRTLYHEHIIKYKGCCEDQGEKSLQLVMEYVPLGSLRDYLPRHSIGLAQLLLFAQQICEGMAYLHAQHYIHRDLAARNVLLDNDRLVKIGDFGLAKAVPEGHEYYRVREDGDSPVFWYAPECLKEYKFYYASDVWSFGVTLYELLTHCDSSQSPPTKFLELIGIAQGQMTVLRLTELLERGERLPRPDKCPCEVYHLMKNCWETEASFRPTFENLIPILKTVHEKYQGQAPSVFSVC
Tyrosine-protein kinase Lck, sequence (P06239 whole entry): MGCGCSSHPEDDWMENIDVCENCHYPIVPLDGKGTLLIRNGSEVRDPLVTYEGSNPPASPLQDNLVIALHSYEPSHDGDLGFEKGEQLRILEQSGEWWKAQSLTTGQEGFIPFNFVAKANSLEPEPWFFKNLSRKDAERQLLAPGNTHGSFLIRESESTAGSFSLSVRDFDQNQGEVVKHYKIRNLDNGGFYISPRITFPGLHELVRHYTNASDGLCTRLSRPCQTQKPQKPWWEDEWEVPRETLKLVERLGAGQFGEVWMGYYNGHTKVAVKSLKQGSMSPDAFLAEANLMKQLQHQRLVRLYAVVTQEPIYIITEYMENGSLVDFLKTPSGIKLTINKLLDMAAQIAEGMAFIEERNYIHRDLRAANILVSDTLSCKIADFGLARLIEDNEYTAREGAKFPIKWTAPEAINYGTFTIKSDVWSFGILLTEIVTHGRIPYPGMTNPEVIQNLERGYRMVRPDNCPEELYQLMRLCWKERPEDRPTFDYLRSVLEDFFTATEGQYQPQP
T3 sequence (O60674 whole entry): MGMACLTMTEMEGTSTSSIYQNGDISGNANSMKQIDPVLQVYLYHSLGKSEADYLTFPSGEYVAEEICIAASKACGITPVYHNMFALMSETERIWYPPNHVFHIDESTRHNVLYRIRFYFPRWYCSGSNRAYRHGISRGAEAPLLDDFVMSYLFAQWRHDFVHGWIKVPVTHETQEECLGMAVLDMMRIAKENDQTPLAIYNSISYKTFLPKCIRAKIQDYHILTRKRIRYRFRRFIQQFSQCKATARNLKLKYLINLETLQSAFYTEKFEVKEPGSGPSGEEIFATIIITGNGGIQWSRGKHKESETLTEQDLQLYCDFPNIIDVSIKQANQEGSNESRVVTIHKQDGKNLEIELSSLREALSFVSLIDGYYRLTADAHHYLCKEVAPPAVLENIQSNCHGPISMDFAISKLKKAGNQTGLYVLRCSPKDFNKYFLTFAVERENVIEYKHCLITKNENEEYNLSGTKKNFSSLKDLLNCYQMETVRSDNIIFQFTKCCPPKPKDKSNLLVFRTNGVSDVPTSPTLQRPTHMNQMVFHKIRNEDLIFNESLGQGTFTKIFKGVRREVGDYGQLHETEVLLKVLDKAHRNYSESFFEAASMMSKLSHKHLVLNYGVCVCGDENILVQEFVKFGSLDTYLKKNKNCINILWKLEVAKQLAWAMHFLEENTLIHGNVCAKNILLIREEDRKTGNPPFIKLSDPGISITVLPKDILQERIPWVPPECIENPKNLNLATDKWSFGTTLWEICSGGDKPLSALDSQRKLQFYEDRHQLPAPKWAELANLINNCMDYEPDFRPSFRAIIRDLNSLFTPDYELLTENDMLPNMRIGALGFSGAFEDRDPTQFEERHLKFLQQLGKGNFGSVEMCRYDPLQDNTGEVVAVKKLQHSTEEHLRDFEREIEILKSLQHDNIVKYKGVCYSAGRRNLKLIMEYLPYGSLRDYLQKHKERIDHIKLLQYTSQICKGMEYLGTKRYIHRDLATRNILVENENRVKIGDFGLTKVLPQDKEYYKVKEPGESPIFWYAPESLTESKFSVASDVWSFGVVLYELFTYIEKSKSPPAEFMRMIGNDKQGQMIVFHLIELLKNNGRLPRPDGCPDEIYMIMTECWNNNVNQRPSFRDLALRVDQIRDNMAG
RAF proto-oncogene serine/threonine-protein kinase (Homo sapiens), sequence (P04049 whole entry): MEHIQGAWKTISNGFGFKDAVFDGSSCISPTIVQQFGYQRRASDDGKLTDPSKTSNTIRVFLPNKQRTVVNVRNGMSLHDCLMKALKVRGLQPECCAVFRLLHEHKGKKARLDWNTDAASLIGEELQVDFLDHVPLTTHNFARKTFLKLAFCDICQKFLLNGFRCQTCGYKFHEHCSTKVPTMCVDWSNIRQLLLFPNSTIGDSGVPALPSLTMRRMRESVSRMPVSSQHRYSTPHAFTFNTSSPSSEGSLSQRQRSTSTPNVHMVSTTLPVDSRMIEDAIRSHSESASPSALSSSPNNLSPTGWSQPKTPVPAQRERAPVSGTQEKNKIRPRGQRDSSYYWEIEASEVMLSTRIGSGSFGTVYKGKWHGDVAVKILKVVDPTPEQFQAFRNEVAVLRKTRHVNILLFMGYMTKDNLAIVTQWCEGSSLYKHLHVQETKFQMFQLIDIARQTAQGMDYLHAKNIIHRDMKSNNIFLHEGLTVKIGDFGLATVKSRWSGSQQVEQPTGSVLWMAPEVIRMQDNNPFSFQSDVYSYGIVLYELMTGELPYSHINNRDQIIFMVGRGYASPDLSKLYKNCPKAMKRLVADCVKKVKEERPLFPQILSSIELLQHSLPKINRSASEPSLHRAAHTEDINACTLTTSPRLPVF
Glycogen synthase kinase-3 alpha (Homo sapiens), sequence (P49840 2-483 limits assumed): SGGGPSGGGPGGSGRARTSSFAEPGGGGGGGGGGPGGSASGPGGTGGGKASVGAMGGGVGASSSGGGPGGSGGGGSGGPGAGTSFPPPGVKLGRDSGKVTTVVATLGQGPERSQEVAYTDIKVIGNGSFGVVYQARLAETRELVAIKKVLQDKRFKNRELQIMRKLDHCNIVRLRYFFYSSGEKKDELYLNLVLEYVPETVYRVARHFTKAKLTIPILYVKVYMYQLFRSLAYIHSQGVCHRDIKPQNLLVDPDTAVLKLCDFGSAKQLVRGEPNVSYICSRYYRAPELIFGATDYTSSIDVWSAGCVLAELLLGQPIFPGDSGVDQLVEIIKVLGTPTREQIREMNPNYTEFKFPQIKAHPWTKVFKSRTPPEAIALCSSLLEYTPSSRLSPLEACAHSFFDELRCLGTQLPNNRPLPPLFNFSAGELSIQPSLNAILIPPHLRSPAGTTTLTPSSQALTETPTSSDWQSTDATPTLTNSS

Take `O=C(Nc1c(F)cccc1Cl)c1cnc(Nc2ccc(N3CCOCC3)cc2)nc1NCC1CCCO1` (racemic): the inhibition – broadly, the drop in the measured response relative to a control, in per cent – on Activated CDC42 kinase 1 [1] came to 82%.

For `O=C(O)C1CCN(c2ccc(Nc3ncc(Cl)c(NCC4CCCO4)n3)cc2)CC1` (racemic), the inhibition on Activated CDC42 kinase 1 [1] amounted to 93%.

Take `Oc1ccc(Nc2ncc(Cl)c(NCC3CCCO3)n2)cc1` (stereo unspecified): the inhibition on Activated CDC42 kinase 1 [1] turned out to be 65%.

Turning to `CN1CCN(c2ccc(Nc3ncc(Cl)c(NC[C@@H]4CCCO4)n3)cc2)CC1`, the inhibition entry in the series on LAPC4 was “Active”. For the same compound, in the series on Plasma, the t1/2 was > 6 h. In addition, in series [2], the solubility (commonly how much of the substance goes into solution per volume) stood at 900 µg/mL (≈ 2230 µM). Also, the IC50 (as a rule, the concentration at which inhibition is half-maximal) worked out at 82 nM on Activated CDC42 kinase 1 [3] and 4000 nM in the series “cells”.

`COC(C)(C)CCn1nc(Nc2c(C)cccc2C)c2cnc(Nc3ccccc3)nc21` showed a 50% inhibitory concentration (IC50) at Activated CDC42 kinase 1 [3] of 2 nM.

Turning to `O=C(O)CCc1ccc(Nc2ncc(Cl)c(NCC3CCCO3)n2)cc1` (stereo unspecified), on Activated CDC42 kinase 1 [1], the inhibition worked out at 74%.

As to `O=C(O)CCc1ccc(Nc2ncc(Br)c(NCC3CCCO3)n2)cc1` (stereo unspecified), the inhibition on Activated CDC42 kinase 1 [1] amounted to 74.5%.

For `Brc1cnc(Nc2ccc(N3CCOCC3)cc2)nc1NCC1CCCO1` (racemic), the inhibition on Activated CDC42 kinase 1 [1] was determined as 89%.

On to `CN(C)CCOc1ccc(-c2oc3ncnc(NCC4SCCS4)c3c2-c2ccccc2)cc1`, for which the results for the inhibition constant (Ki) (in series [4]; on Activated CDC42 kinase 1 [3]) were 138 nM and 0.3 nM, respectively.

For `O=C(O)CCCc1ccc(Nc2ncc(Cl)c(NCC3CCCO3)n2)cc1` (stereo unspecified), the inhibition on Activated CDC42 kinase 1 [1] was 60%.

Regarding `Brc1cnc(Nc2ccc(C3CCNCC3)cc2)nc1NCC1CCCO1` (racemic), the inhibition on Activated CDC42 kinase 1 [1] came to 84.5%.

With `COc1ccc(Nc2ncc(C(=O)Nc3c(F)cccc3Cl)c(NCC3CCCO3)n2)cc1` (racemic), the inhibition at Activated CDC42 kinase 1 [1] amounted to 68%.

As to `c1ccc(-c2oc3ncnc(NC[C@@H]4CCCO4)c3c2-c2ccccc2)cc1`, the inhibition result with LAPC4 is “Active”.

For the compound `CN1CCN(c2ccc(Nc3nccc(NCC4CCCO4)n3)cc2)CC1` (stereo unspecified), the inhibition on Activated CDC42 kinase 1 [1] came out at 16%.

In the case of `CN1CCN(c2ccc(Nc3ncc(Cl)c(NC[C@H]4CCCO4)n3)cc2)CC1`, the inhibition in series [5] is 4.7%; in series [6] it was 75.9%; in series [7], 45.1%; in series [8] it was 23.1%; in [9] it was 84.8%; in series [10] it was -7.7%. In addition, the inhibition is 26.3% in series [11]; -2.8% in series [12]; 31.9% in series [13]; -1.1% in series [14]; 1.9% in [15]; 86.4% in series [16]. The inhibition in series [17] was 41.3%; in series [18], 0.4%; in series [19], 46.6%; in series [20] it was 98.6%; in series [21], 67.3%; in series [22] it was -5.6%. In addition, the inhibition in series [23] was 24.1%; in [24] it was 42.7%; in series [25], 3.6%; in [26], -0.8%; in [27], 26%; in [28], 71.8%. For the same compound, the inhibition in series [29] was 32%; in series [30], 63.2%; in series [31] it was 98.9%; in series [32], 12.4%; in [39], 5.1%. The inhibition result in the series with LAPC4 was “Active”. Also, the IC50 in [33] is 6 nM; in series [34], 5 nM; in series [35], 160 nM; in [36] it was 206 nM; in [37], 154 nM; in [4], 136 nM. Further, the values for the 50% inhibitory concentration (IC50) (in series [38]; in the series on LNCaP; in “cells”) were 124 nM, 1800 nM and 2000 nM, respectively. Besides, in the series with Plasma, the t1/2 is > 6 h. Further, the solubility in [2] stood at 1000 µg/mL (≈ 2480 µM).

On to `Clc1cnc(Nc2ccc(C3CCNCC3)cc2)nc1NCC1CCCO1` (racemic), for which, at Activated CDC42 kinase 1 [1], the inhibition came out at 79.5%.

The values above are taken from ChEMBL document CHEMBL3425491, “Development of novel ACK1/TNK2 inhibitors using a fragment-based approach” (J Med Chem, 2015).
